± gives the standard deviation of the averaged measurements.
Legend:
SOTRASTAURIN/AEB071 = compound: CN1CCN(c2nc(C3=C(c4c[nH]c5ccccc45)C(=O)NC3=O)c3ccccc3n2)CC1 [SOTRASTAURIN/AEB071]; experiment: surviving fraction relative to DMSO-only wells; higher = less growth inhibition; conditions: exposure time: 5 days
Procedure, shortened: (§1)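 Viability values are CellTiter-Glo luminescence readings, given as surviving fraction against the median of DMSO-only wells. The readings were taken after 10 minutes at room temperature, following five days of continuous exposure to inhibitors at 0.5, 1, 5, 10, 50, 100, 500 and 1000 nM that began 24 hours after log-phase tumour cell lines were seeded at 250–500 cells per well in 384-well plates. Every line was screened three times and kept only if replicate Pearson r >0.7 and median Z' >0.3.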

[1] = compound: CCn1c(C(=O)N(C2CC2)C2CC2)cc2c3c(ncn3C)c(Nc3cc(C)n(C)n3)nc21; experiment: as above; conditions: exposure time: 5 days
Procedure, shortened: as §1

Test System | surviving fraction (SOTRASTAURIN/AEB071; 0.5 nM) | surviving fraction (SOTRASTAURIN/AEB071; 1 nM) | surviving fraction (SOTRASTAURIN/AEB071; 5 nM) | surviving fraction (SOTRASTAURIN/AEB071; 10 nM) | surviving fraction (SOTRASTAURIN/AEB071; 50 nM) | surviving fraction (SOTRASTAURIN/AEB071; 100 nM) | surviving fraction (SOTRASTAURIN/AEB071; 500 nM) | surviving fraction (SOTRASTAURIN/AEB071; 1000 nM) | surviving fraction ([1]; 0.5 nM) | surviving fraction ([1]; 1 nM) | surviving fraction ([1]; 5 nM) | surviving fraction ([1]; 10 nM) | surviving fraction ([1]; 50 nM) | surviving fraction ([1]; 100 nM) | surviving fraction ([1]; 500 nM) | surviving fraction ([1]; 1000 nM)
LM7 BONE | 1.03 ± 0.077 | 0.945 ± 0.024 | 1.01 ± 0.075 | 1.05 ± 0.062 | 0.889 ± 0.051 | 0.907 ± 0.049 | 0.803 ± 0.035 | 0.811 ± 0.12 | 0.967 ± 0.042 | 0.976 ± 0.03 | 1.07 ± 0.041 | 1.03 ± 0.097 | 1.04 ± 0.047 | 1.06 ± 0.073 | 0.994 ± 0.12 | 0.896 ± 0.03
SKBR3 BREAST | 1.12 ± 0.05 | 0.9717 ± 0.0031 | 1 ± 0.068 | 1.07 ± 0.15 | 0.782 ± 0.085 | 0.84 ± 0.11 | 0.818 ± 0.086 | 0.849 ± 0.12 | 0.949 ± 0.15 | 1.07 ± 0.11 | 0.955 ± 0.11 | 1.04 ± 0.12 | 1.08 ± 0.12 | 1.1 ± 0.049 | 1.04 ± 0.081 | 0.999 ± 0.14
SCC36 HEADNECK | 1.03 ± 0.063 | 0.903 ± 0.069 | 1.03 ± 0.068 | 1.027 ± 0.0046 | 0.843 ± 0.039 | 0.77 ± 0.033 | 0.838 ± 0.033 | 0.77 ± 0.048 | 0.87 ± 0.045 | 1.07 ± 0.1 | 1.12 ± 0.077 | 1.11 ± 0.044 | 1.12 ± 0.073 | 1.04 ± 0.032 | 1.07 ± 0.093 | 0.962 ± 0.057
CAL120 BREAST | 1.03 ± 0.042 | 1.01 ± 0.054 | 1.01 ± 0.03 | 1.02 ± 0.035 | 0.985 ± 0.051 | 0.955 ± 0.035 | 0.976 ± 0.046 | 0.981 ± 0.009 | 0.876 ± 0.038 | 0.911 ± 0.018 | 0.937 ± 0.036 | 0.924 ± 0.056 | 0.962 ± 0.0098 | 0.94 ± 0.036 | 0.941 ± 0.026 | 0.897 ± 0.012
KPD BONE | 0.967 ± 0.054 | 0.974 ± 0.034 | 1.08 ± 0.062 | 1.04 ± 0.032 | 1.01 ± 0.031 | 1.08 ± 0.019 | 1.04 ± 0.043 | 1.07 ± 0.059 | 1.01 ± 0.074 | 0.951 ± 0.089 | 1.01 ± 0.043 | 0.991 ± 0.074 | 1.04 ± 0.047 | 1.01 ± 0.14 | 0.945 ± 0.017 | 0.99 ± 0.056
H23 LUNG | 1.03 ± 0.015 | 1.09 ± 0.046 | 1.07 ± 0.045 | 1.03 ± 0.016 | 1.1 ± 0.076 | 1.11 ± 0.092 | 1.14 ± 0.037 | 1.116 ± 0.011 | 0.966 ± 0.048 | 0.982 ± 0.013 | 0.972 ± 0.025 | 0.981 ± 0.03 | 0.99 ± 0.015 | 0.981 ± 0.025 | 0.894 ± 0.021 | 0.903 ± 0.054
SCC90 HEADNECK | 1.05 ± 0.063 | 0.997 ± 0.066 | 0.925 ± 0.099 | 1.01 ± 0.1 | 0.87 ± 0.037 | 0.875 ± 0.028 | 0.708 ± 0.033 | 0.676 ± 0.072 | 0.826 ± 0.041 | 0.929 ± 0.046 | 1.05 ± 0.14 | 0.964 ± 0.091 | 0.976 ± 0.04 | 1.01 ± 0.13 | 0.875 ± 0.093 | 0.922 ± 0.061
SUM44 BREAST | 1.03 ± 0.23 | 1.04 ± 0.21 | 1.13 ± 0.2 | 1.03 ± 0.19 | 0.895 ± 0.057 | 0.962 ± 0.054 | 1.02 ± 0.1 | 1.03 ± 0.092 | 0.98 ± 0.056 | 1 ± 0.0096 | 1.04 ± 0.026 | 0.997 ± 0.086 | 1.03 ± 0.08 | 1.12 ± 0.025 | 1.02 ± 0.068 | 1.01 ± 0.057
NOS1 BONE | 1.05 ± 0.087 | 1 ± 0.084 | 1.14 ± 0.12 | 1.08 ± 0.071 | 0.974 ± 0.095 | 1 ± 0.037 | 0.899 ± 0.035 | 1 ± 0.037 | 1.09 ± 0.11 | 1.13 ± 0.12 | 1.14 ± 0.035 | 1.04 ± 0.1 | 1.12 ± 0.15 | 1.13 ± 0.088 | 1.06 ± 0.2 | 0.884 ± 0.16
NCIH441 LUNG | 1.03 ± 0.069 | 1.03 ± 0.043 | 1.16 ± 0.034 | 0.969 ± 0.072 | 1.02 ± 0.068 | 1 ± 0.022 | 1.07 ± 0.037 | 0.957 ± 0.083 | 0.92 ± 0.068 | 0.97 ± 0.033 | 1.03 ± 0.033 | 1.01 ± 0.13 | 0.952 ± 0.063 | 1.04 ± 0.037 | 1.06 ± 0.068 | 1.04 ± 0.017
SUM149 BREAST | 0.923 ± 0.17 | 0.901 ± 0.054 | 0.892 ± 0.11 | 0.896 ± 0.088 | 0.932 ± 0.1 | 0.851 ± 0.025 | 0.893 ± 0.062 | 0.882 ± 0.031 | 1.04 ± 0.093 | 1.05 ± 0.12 | 1.07 ± 0.059 | 1.06 ± 0.026 | 1.04 ± 0.05 | 1.04 ± 0.16 | 1.06 ± 0.037 | 1.1 ± 0.16
MFM223 BREAST | 1.12 ± 0.12 | 1.18 ± 0.094 | 1.07 ± 0.084 | 1.12 ± 0.076 | 0.849 ± 0.18 | 0.716 ± 0.081 | 0.719 ± 0.038 | 0.711 ± 0.035 | 1.07 ± 0.076 | 1.02 ± 0.056 | 1.03 ± 0.047 | 1.04 ± 0.053 | 1.1 ± 0.087 | 1.18 ± 0.075 | 1.17 ± 0.092 | 1.15 ± 0.089
ASKA SYNOVIAL | 1.14 ± 0.086 | 1.1 ± 0.074 | 1.18 ± 0.057 | 1.2 ± 0.097 | 1.03 ± 0.073 | 1.02 ± 0.028 | 0.998 ± 0.068 | 0.995 ± 0.077 | 1.06 ± 0.071 | 0.998 ± 0.1 | 1.06 ± 0.064 | 1.05 ± 0.062 | 1.15 ± 0.092 | 1.11 ± 0.063 | 1.07 ± 0.057 | 0.953 ± 0.051
HSSYII SYNOVIAL | 0.909 ± 0.02 | 0.985 ± 0.084 | 0.984 ± 0.022 | 0.98 ± 0.02 | 0.87 ± 0.069 | 0.83 ± 0.065 | 0.833 ± 0.015 | 0.839 ± 0.039 | 0.918 ± 0.058 | 0.908 ± 0.022 | 0.905 ± 0.061 | 0.901 ± 0.022 | 0.937 ± 0.025 | 0.926 ± 0.027 | 0.926 ± 0.049 | 0.887 ± 0.039
RDES SOFT TISSUE | 1.16 ± 0.061 | 1.22 ± 0.13 | 1.04 ± 0.13 | 1.05 ± 0.12 | 0.953 ± 0.017 | 0.871 ± 0.056 | 0.987 ± 0.075 | 1.01 ± 0.13 | 1.24 ± 0.11 | 1.2 ± 0.16 | 1.33 ± 0.071 | 1.27 ± 0.024 | 1.26 ± 0.12 | 1.19 ± 0.13 | 1.22 ± 0.13 | 1.39 ± 0.12
JURKAT HAEMATOPOIETIC AND LYMPHOID TISSUE | 1.08 ± 0.047 | 1.13 ± 0.017 | 1.09 ± 0.042 | 1.08 ± 0.041 | 1.06 ± 0.012 | 1.03 ± 0.022 | 1.06 ± 0.044 | 1.05 ± 0.032 | 1.092 ± 0.0091 | 1.08 ± 0.017 | 1.09 ± 0.021 | 1.05 ± 0.037 | 1.05 ± 0.036 | 1.04 ± 0.034 | 1.08 ± 0.018 | 1.09 ± 0.014
JIMT1 BREAST | 0.958 ± 0.039 | 0.941 ± 0.017 | 0.98 ± 0.033 | 0.96 ± 0.02 | 0.975 ± 0.038 | 0.956 ± 0.047 | 0.987 ± 0.037 | 0.992 ± 0.022 | 0.975 ± 0.024 | 0.969 ± 0.034 | 0.973 ± 0.026 | 1.01 ± 0.013 | 1.07 ± 0.046 | 1.06 ± 0.02 | 1.06 ± 0.014 | 1.06 ± 0.0097
22RV1 PROSTATE | 1.08 ± 0.014 | 1.11 ± 0.026 | 0.985 ± 0.013 | 1.05 ± 0.054 | 1.24 ± 0.26 | 1.2 ± 0.17 | 1.06 ± 0.099 | 1.03 ± 0.051 | 0.972 ± 0.044 | 1.03 ± 0.037 | 0.975 ± 0.019 | 1.02 ± 0.017 | 1.07 ± 0.031 | 1.03 ± 0.079 | 1.07 ± 0.018 | 1.08 ± 0.064
NY BONE | 0.99 ± 0.041 | 0.971 ± 0.023 | 1.08 ± 0.002 | 1.03 ± 0.048 | 1.11 ± 0.022 | 1.09 ± 0.043 | 1.07 ± 0.051 | 1.106 ± 0.0067 | 0.934 ± 0.0062 | 0.932 ± 0.038 | 1.002 ± 0.01 | 0.975 ± 0.026 | 1.02 ± 0.022 | 0.99 ± 0.013 | 0.922 ± 0.025 | 0.915 ± 0.018
